Results taken from PMC3690538, “Structure of Rhomboid Protease in Complex with β-Lactam Inhibitors Defines the S2′ Cavity” (Structure(London, England:1993), 2013).

molecular target: T1, GlpG (Escherichia coli, UniProt P09391); experiment: gel-based substrate cleavage, SDS-PAGE densitometry, four-parameter fit; format: biochemical
T1 construct: purified intramembrane serine protease in detergent
T1 sequence (P09391 1-276): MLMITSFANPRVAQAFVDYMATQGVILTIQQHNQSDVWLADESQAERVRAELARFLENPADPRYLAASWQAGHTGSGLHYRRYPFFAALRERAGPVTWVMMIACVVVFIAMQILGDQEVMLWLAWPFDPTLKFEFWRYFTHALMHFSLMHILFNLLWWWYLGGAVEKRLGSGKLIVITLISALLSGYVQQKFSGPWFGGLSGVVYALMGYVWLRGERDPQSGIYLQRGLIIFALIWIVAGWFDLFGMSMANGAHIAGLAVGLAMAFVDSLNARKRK

In order of rising IC50:
1. O=C1CC(c2ccccc2)N1C(=O)OCc1ccccc1 (centres unmarked) [L59]  728 ± 60 nM
2. O=C1CC(c2ccccc2)N1C(=O)Oc1ccc(Cl)cc1 (centres unmarked) [L60]  1090 ± 30 nM
3. O=C1CC(c2ccccc2)N1C(=O)Oc1ccccc1 (racemic) [L29]  1120 ± 50 nM
4. O=C1CC(c2ccccc2)N1C(=O)OC1CCCC1 (racemic) [L62]  5270 ± 80 nM
5. CC(C)COC(=O)N1C(=O)CC1c1ccccc1 (racemic) [L61]  11700 ± 750 nM
